According to ChEMBL document CHEMBL1129859, “Synthesis and antibacterial activity of (1R, 5R, 6R)-2-tert-butyl-6-(1-hydroxyethyl)penem-3-carboxylic acid” (Bioorg Med Chem Lett, 1997):
≈ marks a conversion by molar mass, not a printed value.

Legend:
[1] = test system: Salmonella; assay: Tested in vitro for the antibacterial activity against Salmonella sp. strain 1335; assay type: functional
[2] = test system: Enterobacter cloacae; assay: Tested in vitro for the antibacterial activity against Enterobacter cloacae strain 265 A; assay type: functional
[3] = test system: Enterobacter cloacae; assay: Tested in vitro for the antibacterial activity against Enterobacter cloacae strain EB 5; assay type: functional
[4] = test system: Klebsiella; assay: Tested in vitro for the antibacterial activity against Klebsiella sp. strain X 68; assay type: functional
[5] = test system: Staphylococcus epidermidis; assay: Tested in vitro for the antibacterial activity against Staphylococcus epidermidis strain 270; assay type: functional
[6] = test system: Haemophilus influenzae; assay: Tested in vitro for the antibacterial activity against Haemophilus influenzae (b-lac-) strain CL; assay type: functional
[7] = test system: Providencia stuartii; assay: Tested in vitro for the antibacterial activity against Providencia stuartii strain PR 33; assay type: functional
[8] = test system: Citrobacter freundii; assay: Tested in vitro for the antibacterial activity against Citrobacter freundii strain CF 17; assay type: functional
[9] = test system: Escherichia coli; assay: Tested in vitro for the antibacterial activity against Escherichia coli strain EC 14; assay type: functional
[10] = test system: Klebsiella; assay: Tested in vitro for the antibacterial activity against Klebsiella sp. strain KAE; assay type: functional
[11] = test system: Escherichia coli; assay: Tested in vitro for the antibacterial activity against Escherichia coli strain TEM; assay type: functional
[12] = test system: Salmonella; assay: Tested in vitro for the antibacterial activity against Salmonella sp. strain X 514; assay type: functional
[13] = test system: Enterobacter cloacae; assay: Tested in vitro for the beta lactamase inhibition of Enterobacter cloacae; assay type: functional, organism-based
[14] = test system: Klebsiella aerogenes; assay: Tested in vitro for the antibacterial activity against Enterobacter aerogenes strain EB 17; assay type: functional
[15] = test system: Klebsiella; assay: Tested in vitro for the antibacterial activity against Klebsiella sp. strain X 26; assay type: functional
[16] = test system: Staphylococcus aureus; assay: Tested in vitro for the antibacterial activity against Staphylococcus aureus strain V 41; assay type: functional
[17] = test system: Serratia marcescens; assay: Tested in vitro for the antibacterial activity against Serratia marcescens strain SE 3; assay type: functional
[18] = test system: Klebsiella aerogenes; assay: Tested in vitro for the antibacterial activity against Enterobacter aerogenes strain C 32; assay type: functional
[19] = test system: Staphylococcus aureus; assay: Tested in vitro for the antibacterial activity against Staphylococcus aureus strain X 1.1; assay type: functional
[20] = test system: Escherichia coli; assay: Tested in vitro for the antibacterial activity against Escherichia coli strain N 10; assay type: functional
[21] = test system: Providencia rettgeri; assay: Tested in vitro for the antibacterial activity against Providencia rettgeri strain C 24; assay type: functional
[22] = test system: Enterococcus; assay: Tested in vitro for the antibacterial activity against Enterococcus sp. strain X 66; assay type: functional
[23] = test system: Staphylococcus epidermidis; assay: Tested in vitro for the antibacterial activity against Staphylococcus epidermidis strain 222; assay type: functional
[24] = test system: Haemophilus influenzae; assay: Tested in vitro for the antibacterial activity against Haemophilus influenzae (b-lac+) strain 76; assay type: functional
[25] = test system: Staphylococcus aureus; assay: Tested in vitro for the antibacterial activity against Staphylococcus aureus strain S 13 E; assay type: functional
[26] = test system: Streptococcus pyogenes; assay: Tested in vitro for the antibacterial activity against Streptococcus pyogenes strain C 203; assay type: functional
[27] = test system: Serratia marcescens; assay: Tested in vitro for the antibacterial activity against Serratia marcescens strain X 99; assay type: functional
[28] = test system: Shigella sonnei; assay: Tested in vitro for the antibacterial activity against Shigella sonnei strain N 9; assay type: functional
[29] = test system: Escherichia coli; assay: Tested in vitro for the beta lactamase inhibition of Escherichia coli TEM; assay type: functional
[30] = test system: Streptococcus pneumoniae; assay: Tested in vitro for the antibacterial activity against Streptococcus pneumoniae strain Park I; assay type: functional
[31] = test system: Acinetobacter; assay: Tested in vitro for the antibacterial activity against Acinetobacter sp. strain AC 12; assay type: functional
[32] = test system: Morganella morganii; assay: Tested in vitro for the antibacterial activity against Morganella morganii strain PR 15; assay type: functional
[33] = test system: Enterococcus; assay: Tested in vitro for the antibacterial activity against Enterococcus sp. strain 2041; assay type: functional
[34] = test system: Staphylococcus aureus; assay: Tested in vitro for the antibacterial activity against Staphylococcus aureus strain X 400; assay type: functional
[35] = Half-life was determined; assay type: ADME; details: human
[36] = test system: Citrobacter freundii; assay: Tested in vitro for the antibacterial activity against Citrobacter freundii strain CF17; assay type: functional
[37] = test system: Providencia stuartii; assay: […] Tested in vitro for the antibacterial activity against Providencia stuartii strain PR 33; assay type: functional

| Structure (SMILES) | MIC [1] | MIC [2] | MIC [3] | MIC [4] | MIC [5] | MIC [6] | MIC [9] | MIC [10] | MIC [11] | MIC [12] | IC50 [13] | MIC [14] | MIC [15] | MIC [16] | MIC [17] | MIC [18] | MIC [19] | MIC [20] | MIC [21] | MIC [22] | also measured |
| --- | --- | --- | --- | --- | --- | --- | --- | --- | --- | --- | --- | --- | --- | --- | --- | --- | --- | --- | --- | --- | --- |
| C[C@@H](O)[C@H]1C(=O)N2C(C(=O)[O-])=C(C(C)(C)C)O[C@H]12.[K+] | 4 µg/mL | 32 µg/mL | 32 µg/mL | 2 µg/mL | 4 µg/mL | 0.5 µg/mL | 4 µg/mL | 4 µg/mL | 4 µg/mL | 1 µg/mL | 2 nM | 32 µg/mL | 1 µg/mL | 1 µg/mL | 64 µg/mL | 8 µg/mL | 0.25 µg/mL | 4 µg/mL | 4 µg/mL | 2 µg/mL | MIC [7]: 4 µg/mL; MIC [8]: 16 µg/mL; MIC [23]: 0.25 µg/mL; MIC [24]: 0.5 µg/mL; MIC [25]: 1 µg/mL; MIC [26]: 0.06 µg/mL; MIC [27]: 16 µg/mL; MIC [28]: 4 µg/mL; IC50 [29]: 3000 nM; MIC [30]: 0.03 µg/mL; MIC [31]: 8 µg/mL; MIC [32]: 8 µg/mL; MIC [33]: 16 µg/mL; MIC [34]: 2 µg/mL |
| O=C(O)[C@H]1/C(=C/CO)O[C@@H]2CC(=O)N21 [CLAVULANIC ACID] |  |  |  |  |  |  |  |  |  |  | 100000 nM |  |  |  |  |  |  |  |  |  | IC50 [29]: 40 nM |
| C[C@@H](O)[C@H]1C(=O)N2C(C(=O)[O-])=C(C(C)(C)C)S[C@H]12.[K+] | 128 µg/mL | 128 µg/mL | 128 µg/mL | 64 µg/mL | 0.5 µg/mL | 8 µg/mL | 128 µg/mL | 64 µg/mL | 128 µg/mL | 32 µg/mL | 300 nM | 128 µg/mL | 8 µg/mL | 1 µg/mL | 128 µg/mL | 128 µg/mL | 0.5 µg/mL | 64 µg/mL | 8 µg/mL | 16 µg/mL | MIC [7]: 32 µg/mL; MIC [8]: 128 µg/mL; half-life [35]: 16 days; MIC [23]: 2 µg/mL; MIC [24]: 8 µg/mL; MIC [25]: 4 µg/mL; MIC [26]: 0.12 µg/mL; MIC [27]: 128 µg/mL; MIC [28]: 64 µg/mL; IC50 [29]: 50 nM; MIC [30]: 0.12 µg/mL; MIC [31]: 16 µg/mL; MIC [32]: 32 µg/mL; MIC [33]: 32 µg/mL; MIC [34]: 4 µg/mL |
| CC(C)(O/N=C(\C(=O)N[C@@H]1C(=O)N2C(C(=O)[O-])=C(C[n+]3ccccc3)CS[C@H]12)c1csc(N)n1)C(=O)O [CEFTAZIDIME] | 0.25 µg/mL (≈ 0.457 µM) | 32 µg/mL (≈ 58.5 µM) | 0.12 µg/mL (≈ 0.22 µM) | 0.12 µg/mL (≈ 0.22 µM) | 16 µg/mL (≈ 29.3 µM) | 0.06 µg/mL (≈ 0.11 µM) | 0.03 µg/mL (≈ 0.0549 µM) | 0.5 µg/mL (≈ 0.915 µM) | 0.03 µg/mL (≈ 0.0549 µM) | 0.06 µg/mL (≈ 0.11 µM) |  | 0.12 µg/mL (≈ 0.22 µM) | 0.06 µg/mL (≈ 0.11 µM) | 8 µg/mL (≈ 14.6 µM) | 0.06 µg/mL (≈ 0.11 µM) | 2 µg/mL (≈ 3.66 µM) | 8 µg/mL (≈ 14.6 µM) | 0.06 µg/mL (≈ 0.11 µM) | 0.03 µg/mL (≈ 0.0549 µM) | 128 µg/mL (≈ 234 µM) | MIC [36]: 0.5 µg/mL (≈ 0.915 µM); MIC [23]: 16 µg/mL (≈ 29.3 µM); MIC [24]: 0.03 µg/mL (≈ 0.0549 µM); MIC [25]: 64 µg/mL (≈ 117 µM); MIC [26]: 0.06 µg/mL (≈ 0.11 µM); MIC [27]: 0.12 µg/mL (≈ 0.22 µM); MIC [28]: 0.03 µg/mL (≈ 0.0549 µM); MIC [37]: 0.06 µg/mL (≈ 0.11 µM); MIC [30]: 0.03 µg/mL (≈ 0.0549 µM); MIC [31]: 1 µg/mL (≈ 1.83 µM); MIC [32]: 0.25 µg/mL (≈ 0.457 µM); MIC [33]: 16 µg/mL (≈ 29.3 µM); MIC [34]: 64 µg/mL (≈ 117 µM) |
